Several values for one entry are separate records, joined by “and”; a condition that tells them apart may be missing. Equal entries are not always repeated. Entries after “also recorded” stand apart in the source; their conditions may differ.
What was measured:
[1] = tested on: patients with retinal detachment at high risk for proliferative vitreoretinopathy (PVR); test: Pilot study of multiple intravitreal methotrexate injections after PPV in eyes at high risk for PVR; format: in vivo, human; set-up: IOP at last follow up / Final IOP: unit not given here
Source text: We hypothesized that the administration of multiple, intravitreal methotrexate injections into eyes with high-risk features for post-operative proliferative vitreoretinopathy (PVR) development will have improved visual outcomes, higher anatomic final reattachment rates, decreased reoperation rates, and decreased occurrence of PVR at 4 months postoperatively.
We have performed a small pilot study in 10 patients with retinal detachment whom had high-risk clinical factors for developing PVR.
Patients 18 years to 89 years old of both genders were eligible for this study if they required pars plana vitrectomy (PPV) for rhegmatagenous retinal detachment secondary to trauma, PPV for preexisting proliferative vitreoretinopathy grade C or higher, or if they had retinal detachments requiring PPV for other indications associated with high risk condition for PVR development, i.e.: giant retinal tears (Giant retinal tears are defined as tears involving 90° or more of the circumference of the globe), retinal breaks larger than 3 disc areas, long-standing retinal detachments, detachments associated with hemorrhage.
The PPV was performed under local or general anesthesia using three, 23 or 20 gauge sclerotomy ports. Any present epiretinal membranes were dissected using a membrane pick and/or forceps. Intraoperative tissue staining, perfluorocarbons, cryopexy, endolaser, scleral buckling, and lensectomy were performed as needed. Either silicone oil or gas was used as the tamponading agent.
Routine post-operative visits, which involve a dilated funduscopic examination, occurred on post-operative day 1, 7, month 1, month 2, and month 3.
In addition to receiving the above-described standard of care, patients received multiple intravitreal methotrexate injections during their post-operative period. The first injection was administered intraoperatively and subsequently was injected on post-op week 1,2,3,4,5,6,7,8 and on post-op month 3, for a total of 10 injections. Intravitreal methotrexate injections were performed aseptically after the topical application of anaesthesia and 5% povidone iodine to the conjunctival sac. Each patient received an intravitreal injection of 400 mcg/0.1 ml methotrexate, 3.0 to 3.5 mm posterior to the limbus, depending on lens status, with a 30-gauge needle.
After injection, patients were monitored for adverse events, including a full-dilated funduscopic examination.

[2] = tested on: patients, eyes with a wide variety of conditions including PVR; settings: intravitreal, varying doses, cited from earlier work
[3] = tested on: human proliferative vitreoretinopathy (PVR) cells; test: Growth of human PVR cells in culture; format: cell-based; settings: for Growth of PVR cells versus control: methotrexate 400, 200, 100 (micrograms, μM), 30,000 cells per well
Description: The cells were treated with 100 μM, 200 μM, or 400 μM Methotrexate (MTX) as indicated, and the images were taken after 72 hours (2A), 1 week (2B) or 2 weeks (2C).
We hypothesized that methotrexate would inhibit human proliferative vitreoretinopathy (PVR) cells in culture. PVR membranectomy was performed in patients undergoing retinal detachment repair secondary to PVR. Using cellular separation techniques, cellular constituents of the PVR membranes were separated from the extracellular matrix membranes. 30,000 cells per well were placed into a standard 12 welled plate. All 12 wells received endothelial cell growth medium with supplemental growth factors. Four arms were designated consisting of three wells each. The first arm served as a control receiving the standard growth medium but no other intervention. The remaining wells were designated as treatment arms. The second arm of three wells served as the first treatment arm and exposed the cells to 400 micrograms of methotrexate. The third and fourth arms of three wells each exposed the cultured cells to 200 and 100 micrograms, respectively, of methotrexate.

[4] = one patient (studyid), follow up 4 to 39 months
[5] = one patient (studyid), intravitreal methotrexate 400 mcg/0.1 ml

CN(Cc1cnc2nc(N)nc(N)c2n1)c1ccc(C(=O)N[C@@H](CCC(=O)O)C(=O)O)cc1 [methotrexate, N-[4-[[(2,4-diamino-6-pteridinyl)methyl]methylamino]benzoyl]-L-glutamic acid]
Other subjects with reaccumulation of fluid under the retina requiring re-operation, no membranes ([1]; 10 patients): Two | Development of PVR while receiving methotrexate ([1]; 10 patients, three-month treatment protocol): no subjects developed PVR | Subjects with a degree of conjunctival hyperemia ([1]; 10 patients, consistent with the use of silicone oil): All subjects | Median post-operative visual acuity ([1]; 10 patients, median pre-operative visual acuity Hand Motions at 2 feet): 20/200 | Visual acuity and intraocular pressure at last follow up visit compared with post-operative month 4 ([1]; all patients): similar | Significant adverse events ([1]; follow up 4 to 39 months, median 25 months): no significant adverse events were observed | Adverse events observed: Conjunctival hyperemia ([1]; one patient (studyid)): 4 (2×) and 7 (3×) and 5 (3×) and 6 (2×) | Adverse events observed: Elevated intraocular pressure ([1]; one patient (studyid)): 0 (9×) and 1 | Adverse events observed: NLP ([1]; one patient (studyid)): 0 (9×) and 1 | Adverse events observed: Superficial Punctate Keratopathy ([1]; one patient (studyid)): 0 (9×) and 1 | Reoperations required ([1]; one patient (studyid)): 1 (2×) and 0 (8×) | IOP at last follow up [1, 4]: 16 (2×) and 9 (3×) and 22 and 14 (2×) and 12 and 15 | Visual acuity at last follow up [1, 4]: 20/300 and 20/200 and NLP and 20/70 and 20/150 and 20/500 | Detachments: Number of detachments due to PVR during study period [1, 5]: 0 (9×) and 0* | Final IOP [1, 5]: 12 (3×) and 9 (2×) and 10 and 8 and 15 and 13 (2×) | Visual Acuity, Post-op month 4 ([1]; one patient (studyid), intravitreal methotrexate 400 mcg/0.1 ml, up to 10 injections over 3 months): 20/200 (4×) and 20/160 and 20/252 and NLP and 20/65 and 20/320 | Elevated intraocular pressure by Goldmann Tonometry ([1]; one patient, single examination, attributed to excessive steroid use): 44 mm Hg | Patients with superficial punctuate keratopathy (SPK) ([1]; single clinical exam, normal corneal surface one week later): one | PVR after completion of the injection protocol ([1]; trauma patient #4, at 3½ months postoperatively): massive PVR two weeks after completion of the injection protocol | Change in visual acuity for the group ([2]; 5 patients): no change in visual acuity | Number of patients with any improved vision ([2]; of 5 patients): one | Proliferation of human PVR cells in culture ([3]; 100 μM, 200 μM, or 400 μM): inhibited proliferation | Growth of PVR cells versus control ([3]; 1 week): growth inhibition and lack of confluency | Growth of PVR cells versus control ([3]; 2 weeks): inhibited growth and lack of confluency; also recorded: inhibition of cellular confluency continued

From patent US10828306B2, “Methotrexate for proliferative vitreoretinopathy” (Massachusetts Eye and Ear Infirmary, priority 2014, dated 2020)
